Test results as given in patent US11285167B2, “Synergistic nutritional neuroprotective compositions for ameliorating neural dysfunction” (CELAGENEX RESEARCH (INDIA) PVT. LTD., priority 2019, dated 2022).

What was measured:
[1] = test system: Valproic acid-induced autism disorder in albino Wistar rats; assay: Morris water maze test in Valproic acid-induced autism disorder; type: in vivo; set-up: Escape latency / Retention time: unit not given here; conditions: for Escape latency / Retention time: PND 40, VPA 400 mg/kg, oral daily PND 14 to PND 40, mean ± SEM; for Learning and memory activities, Morris water maze (in words): PND 40, compared to Disease control or to Group-3 and Group-4
Protocol: The present study was to evaluate the effect of test substances on Valproic acid induced Autism spectrum disorder in wistar rats. The animals (50 animals) were divided into five groups each group consisting of 10 animals (5 animals per sex). Animals in Group-1 were treated with vehicle (0.5% CMC), Group-2 was treated with Valproic acid (VPA) 400 mg/kg via subcutaneous route, Group-3, Group-4 and Group-5 were treated with test substance Agmatine Sulphate (25.83 mg/kg), Nicotinamide Riboside chloride (6.46 mg/kg) and Agmatine Sulphate+Nicotinamide Riboside chloride (25.83 mg/kg+6.46 mg/kg) respectively, according to the body weight of animals. At the end of the experimental period, blood was collected from each group for biochemical analyses. On postnatal day 40 (PND 40), all the animals were exposed to the Morris water maze test and Open field test for specific time periods to determine the autism-like behaviors of the test substances. […] The experiment was performed in 14-day old male and female off springs. The weight of the rat pups on the first day of the experiment was 20-40 grams. Sodium Valproate at dose of 400 mg/kg was freshly prepared and administered via subcutaneous route to the rat pups on postnatal day 14 (PND 14). All the animals were divided into five groups and each group contained the same amount of male and female offspring (5 males and 5 females, per group). Animals in Group-1 served as Normal control and were treated with 0.5% CMC, Group-2 served as Disease control and were treated with VPA (400 mg/kg) via intraperitoneally (i.p.), whereas Group-3 was treated with Test-1 Agmatine Sulphate (25.83 mg/kg), Group-4 was treated with Test-2 Nicotinamide Riboside chloride (6.46 mg/kg) and Group-5 was treated with Test-1+Test-2 Agmatine Sulphate+Nicotinamide Riboside chloride (25.83 mg/kg+6.46 mg/kg). The assigned test substances were administered once daily from PND 14 to PND 40. In addition, behaviors of experimental animals were determined via Morris water maze and open field test. […] The dose volume administered to each rat was 10 ml/kg/day. Similarly, 0.5% CMC for Normal control and Disease control groups was administered orally at the same dose volume for a minimum of 26 consecutive days. The dose volume was calculated for individual animals on the first day of the treatment and was re-calculated according to the recent body weights recorded during the study. Daily individual dose volumes were recorded in the study records. The animals were exposed to a pool consisting of 4 quadrants (Northeast, Southeast, Southwest, and Northwest) which was filled with tap water (25° C., 40 cm deep) and covered with nontoxic milk. The removable platform was immersed below the water surface of one quadrant. Each animal had to memorize the location of the immersed platform by using specific visual cues placed around the outside of the tank. The time spent by each rat in finding and climbing on the immersed platform was recorded as the escape latency. Twenty-four hours later, the animal was re-exposed to the same condition, except that the immersed platform had been removed. The mean time that each rat spent in the target quadrant in order to search for the missing platform was noted as the retention time and was used as the index of retrieval memory. Both the escape latency and the retention time in a 5-minute exposure time were used as indices of learning and memory. A blind observer always stood at the same position, and care was taken not to disturb the relative location of water maze with respect to other objects in the laboratory. The determination of the spatial memory capacity via this test was done on PND 40.

TNF alpha = TNF alpha level in global ischemia reperfusion induced brain injury (cerebral infarction) model; type: in vivo, Wistar rats; conditions: global ischemia (30 min)/72 h reperfusion, oral daily for 10 days, mean ± SEM, n = 6
[2] = test system: Valproic acid-induced autism disorder in albino Wistar rats; assay: Open field test (hyperactivity) in Valproic acid-induced autism disorder; type: in vivo; conditions: for No. of squares visited for 6 mins: PND 40, VPA 400 mg/kg, oral daily PND 14 to PND 40, mean ± SEM; for Hyperactive behavior / locomotor activity, open field test (in words): PND 40, compared to Disease control or to Group-3 and Group-4
Protocol: The present study was to evaluate the effect of test substances on Valproic acid induced Autism spectrum disorder in wistar rats. The animals (50 animals) were divided into five groups each group consisting of 10 animals (5 animals per sex). Animals in Group-1 were treated with vehicle (0.5% CMC), Group-2 was treated with Valproic acid (VPA) 400 mg/kg via subcutaneous route, Group-3, Group-4 and Group-5 were treated with test substance Agmatine Sulphate (25.83 mg/kg), Nicotinamide Riboside chloride (6.46 mg/kg) and Agmatine Sulphate+Nicotinamide Riboside chloride (25.83 mg/kg+6.46 mg/kg) respectively, according to the body weight of animals. At the end of the experimental period, blood was collected from each group for biochemical analyses. On postnatal day 40 (PND 40), all the animals were exposed to the Morris water maze test and Open field test for specific time periods to determine the autism-like behaviors of the test substances. […] The experiment was performed in 14-day old male and female off springs. The weight of the rat pups on the first day of the experiment was 20-40 grams. Sodium Valproate at dose of 400 mg/kg was freshly prepared and administered via subcutaneous route to the rat pups on postnatal day 14 (PND 14). All the animals were divided into five groups and each group contained the same amount of male and female offspring (5 males and 5 females, per group). Animals in Group-1 served as Normal control and were treated with 0.5% CMC, Group-2 served as Disease control and were treated with VPA (400 mg/kg) via intraperitoneally (i.p.), whereas Group-3 was treated with Test-1 Agmatine Sulphate (25.83 mg/kg), Group-4 was treated with Test-2 Nicotinamide Riboside chloride (6.46 mg/kg) and Group-5 was treated with Test-1+Test-2 Agmatine Sulphate+Nicotinamide Riboside chloride (25.83 mg/kg+6.46 mg/kg). The assigned test substances were administered once daily from PND 14 to PND 40. In addition, behaviors of experimental animals were determined via Morris water maze and open field test. […] The dose volume administered to each rat was 10 ml/kg/day. Similarly, 0.5% CMC for Normal control and Disease control groups was administered orally at the same dose volume for a minimum of 26 consecutive days. The dose volume was calculated for individual animals on the first day of the treatment and was re-calculated according to the recent body weights recorded during the study. Daily individual dose volumes were recorded in the study records. All the animals were exposed to open field tests after the oral treatment with various tests, standard and control treatment in respective groups. The open field apparatus consisted of a wooden field of half square meter with a series of squares alternatively painted in black and white. […] Animals were treated with vehicle and the drug and were placed in the middle of the open field. Then the number of squares visited by the animals was counted for a 6 minute session. The number of entries by respective groups was recorded and used to determine the active time duration of animal post dosing. The determination of the hyperactivity of animals via this test was done on PND 40.

| Compound | Escape latency ([1]; Female) | Retention time ([1]; Female) | Escape latency ([1]; Male) | Retention time ([1]; Male) | Learning and memory activities, Morris water maze (in words) [1] | TNF alpha Level (TNF alpha) | No. of squares visited for 6 mins ([2]; Female) | No. of squares visited for 6 mins ([2]; Male) | Hyperactive behavior / locomotor activity, open field test (in words) [2] |
| --- | --- | --- | --- | --- | --- | --- | --- | --- | --- |
| N=C(N)NCCCCN.O=S(=O)(O)O [Agmatine sulphate] | 14.20 ± 0.37 | 24.80 ± 0.58 | 14.00 ± 0.71 | 24.20 ± 0.73 | significantly increased learning and memory activities | 142.00 ± 1.53 pg/mL | 85.40 ± 1.03 | 86.20 ± 2.06 | significantly decreased hyperactive behavior |
| NC(=O)c1ccc[n+]([C@@H]2O[C@H](CO)[C@@H](O)[C@H]2O)c1.[Cl-] [Nicotinamide Riboside chloride, nicotinamide riboside chloride] | 15.20 ± 0.37 | 26.40 ± 0.68 | 15.40 ± 0.51 | 26.20 ± 0.49 | significantly increased learning and memory activities | 160.33 ± 4.79 pg/mL | 87.20 ± 0.97 | 88.40 ± 0.98 | significantly decreased hyperactive behavior |
